Key:
α5β3γ2 GABAA receptors = α5β3γ2 GABAA receptors (Homo sapiens, UniProt P18507+P31644); experiment: [3H]Ro15-1788 binding, membranes of Ltk cells stably expressing α5β3γ2 GABAA receptors; conditions: ranges; inhibition of [3H]Ro15-1788 binding
GABAA receptors (α5β2γ2) = target: T1, GABAA receptors (α5β2γ2) (Homo sapiens, UniProt P18507+P31644); experiment: Positive allosteric modulator activity: potentiation of EC20 GABA current in oocytes; type: cell-based; conditions: read-out: GABA α5 Functional Data (potentiation of EC20 GABA); @ 100 nM; ranges
T1 construct: expressed in transfected cells
T1 sequence (P31644 32-462): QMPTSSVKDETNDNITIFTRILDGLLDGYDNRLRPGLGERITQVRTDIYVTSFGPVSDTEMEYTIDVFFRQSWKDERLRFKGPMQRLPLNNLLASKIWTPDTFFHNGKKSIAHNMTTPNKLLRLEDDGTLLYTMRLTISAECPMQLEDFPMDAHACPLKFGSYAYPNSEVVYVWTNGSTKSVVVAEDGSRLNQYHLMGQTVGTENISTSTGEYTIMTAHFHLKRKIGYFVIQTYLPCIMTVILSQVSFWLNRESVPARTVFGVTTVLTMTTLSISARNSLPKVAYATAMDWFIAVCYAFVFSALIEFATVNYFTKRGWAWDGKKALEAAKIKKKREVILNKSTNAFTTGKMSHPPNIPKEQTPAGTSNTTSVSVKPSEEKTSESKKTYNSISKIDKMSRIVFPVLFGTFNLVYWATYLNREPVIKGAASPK
T1 sequence (P47870 25-512, further chain): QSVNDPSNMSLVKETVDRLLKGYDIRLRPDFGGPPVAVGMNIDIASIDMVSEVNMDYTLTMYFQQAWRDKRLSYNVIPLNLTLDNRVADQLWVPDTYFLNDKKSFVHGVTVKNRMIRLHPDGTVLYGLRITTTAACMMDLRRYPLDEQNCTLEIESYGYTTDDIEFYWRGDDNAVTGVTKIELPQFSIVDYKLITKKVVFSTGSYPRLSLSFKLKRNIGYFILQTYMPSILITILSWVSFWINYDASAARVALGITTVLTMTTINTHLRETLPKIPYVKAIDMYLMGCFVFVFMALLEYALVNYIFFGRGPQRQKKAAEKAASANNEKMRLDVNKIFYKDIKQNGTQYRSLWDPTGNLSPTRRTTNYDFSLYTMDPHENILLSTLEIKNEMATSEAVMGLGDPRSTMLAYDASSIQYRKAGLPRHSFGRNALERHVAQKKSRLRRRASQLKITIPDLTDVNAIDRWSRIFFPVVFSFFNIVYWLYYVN
T1 sequence (P18507 40-475): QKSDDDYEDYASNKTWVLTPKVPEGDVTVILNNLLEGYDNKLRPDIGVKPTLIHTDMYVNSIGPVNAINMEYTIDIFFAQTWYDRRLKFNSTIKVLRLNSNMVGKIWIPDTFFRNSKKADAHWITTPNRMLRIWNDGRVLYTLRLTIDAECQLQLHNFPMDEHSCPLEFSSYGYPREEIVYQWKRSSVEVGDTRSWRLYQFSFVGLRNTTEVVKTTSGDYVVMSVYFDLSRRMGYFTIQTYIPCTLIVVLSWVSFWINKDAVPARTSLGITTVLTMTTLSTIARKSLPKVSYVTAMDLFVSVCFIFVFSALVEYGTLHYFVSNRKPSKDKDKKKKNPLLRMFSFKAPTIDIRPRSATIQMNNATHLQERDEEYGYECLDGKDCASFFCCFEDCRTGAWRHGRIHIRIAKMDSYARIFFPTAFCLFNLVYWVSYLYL
Experimental: On day 1, 1 ng/32 nL of GABAA α5β2γ2 cDNA was injected into one oocyte. Test starts on day 2. The cDNA injected to the oocytes was a mix of alpha, beta and gamma, their ratio is 1:1:10 (by weight) and the total weight of the mixed 3 subunits to be injected in one oocyte was 1 ng in 32 nl volume. The injected oocytes can also be tested on day 3. In such case, the cDNA amount injected to the oocytes should be reduced by 20%.
1). 8 oocytes were placed in 8 chambers of OpusXpress and superfused with Modified Barth's Saline (MBS) at 3 mL/min. Glass electrodes back-filled with 3M KCl (0.5-3 megaohms) were used.
1). New oocytes were used to run new test.
3). […] Oocytes were washed with MBS for 5-10 min.
4). […] Itest was divided by IGABA to obtain potentiation (%).
Test Compounds at Multiple Doses • 1). Repeat the above steps 1), 2) and 3) in the control test. • 2). […] Divide Itest by IGABA to obtain potentiation (%). • 3). Discard all tested oocytes, new oocytes were used and the above steps 1) and 2) were repeated to test second concentration of the same compound. Each oocyte was used for only one concentration test for a single test compound. The steps were repeated for other test compounds.

Chain of α5β3γ2 GABAA receptors (P31644 32-462): as the sequence (P31644 32-462) above
Chain of α5β3γ2 GABAA receptors (P28472 26-473 partner): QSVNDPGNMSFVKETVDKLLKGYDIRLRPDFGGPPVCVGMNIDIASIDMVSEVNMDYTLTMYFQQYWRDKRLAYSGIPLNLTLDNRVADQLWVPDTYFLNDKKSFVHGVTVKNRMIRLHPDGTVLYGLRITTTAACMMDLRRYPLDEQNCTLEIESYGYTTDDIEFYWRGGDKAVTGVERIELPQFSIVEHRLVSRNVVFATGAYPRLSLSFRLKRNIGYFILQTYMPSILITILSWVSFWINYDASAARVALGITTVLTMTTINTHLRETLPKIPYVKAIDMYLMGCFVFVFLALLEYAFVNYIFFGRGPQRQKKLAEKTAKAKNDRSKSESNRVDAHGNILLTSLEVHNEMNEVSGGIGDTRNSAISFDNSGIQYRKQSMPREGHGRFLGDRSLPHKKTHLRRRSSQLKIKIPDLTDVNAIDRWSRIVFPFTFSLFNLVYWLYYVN
Chain of α5β3γ2 GABAA receptors (P18507 40-475): as the sequence (P18507 40-475) above

SMILES: COCc1nnc2n1Cc1c(C#Cc3cncc(C)c3)ncn1-c1ccc(Cl)cc1-2 [Compound 558]
- Ki (α5β3γ2 GABAA receptors): < 100 nM
- activation at 0.1 µM (GABAA receptors (α5β2γ2)): 5 to 20%

SMILES: COCc1nnc2n1Cc1c(C#Cc3cncc(OC)c3)ncn1-c1ccc(Cl)cc1-2 [Compound 559]
- Ki (α5β3γ2 GABAA receptors): < 100 nM
- activation at 0.1 µM (GABAA receptors (α5β2γ2)): 5 to 20%

SMILES: COCc1nnc2n1Cc1c(C#Cc3ccc(C)nc3)ncn1-c1ccc(OC)cc1-2 [Compound 561]
- Ki (α5β3γ2 GABAA receptors): < 100 nM
- activation at 0.1 µM (GABAA receptors (α5β2γ2)): 20 to 50%

SMILES: COCc1nnc2n1Cc1c(C#Cc3ccc(C)cn3)ncn1-c1ccc(OC)cc1-2 [Compound 562]
- Ki (α5β3γ2 GABAA receptors): < 100 nM
- activation at 0.1 µM (GABAA receptors (α5β2γ2)): 20 to 50%

SMILES: COCc1nnc2n1Cc1c(C#Cc3cncc(OC)c3)ncn1-c1ccc(OC)cc1-2 [Compound 566]
- Ki (α5β3γ2 GABAA receptors): < 100 nM
- activation at 0.1 µM (GABAA receptors (α5β2γ2)): 5 to 20%

SMILES: COCc1nnc2n1Cc1c(C#Cc3ccnc(OC)c3)ncn1-c1ccc(OC)cc1-2 [Compound 567]
- Ki (α5β3γ2 GABAA receptors): < 100 nM
- activation at 0.1 µM (GABAA receptors (α5β2γ2)): 5 to 20%

SMILES: COCc1nnc2n1Cc1c(C#Cc3ccnc(OC)c3)ncn1-c1ccc(Cl)cc1-2 [Compound 570]
- Ki (α5β3γ2 GABAA receptors): < 100 nM
- activation at 0.1 µM (GABAA receptors (α5β2γ2)): 5 to 20%

SMILES: COCc1nnc2n1Cc1c(C#Cc3ncc(OC)cn3)ncn1-c1ccc(Cl)cc1-2 [Compound 574]
- Ki (α5β3γ2 GABAA receptors): < 100 nM
- activation at 0.1 µM (GABAA receptors (α5β2γ2)): > 50%

SMILES: COCc1nnc2n1Cc1c(C#Cc3cnccn3)ncn1-c1ccc(Cl)cc1-2 [Compound 576]
- Ki (α5β3γ2 GABAA receptors): < 100 nM
- activation at 0.1 µM (GABAA receptors (α5β2γ2)): 20 to 50%

SMILES: COCc1nnc2n1Cc1c(C#Cc3ccc(OC)c(C)n3)ncn1-c1ccc(Cl)cc1-2 [Compound 581]
- Ki (α5β3γ2 GABAA receptors): < 100 nM
- activation at 0.1 µM (GABAA receptors (α5β2γ2)): 20 to 50%

SMILES: COCc1nnc2n1Cc1c(C#Cc3cnc(C)cn3)ncn1-c1ccc(Cl)cc1-2 [Compound 582]
- Ki (α5β3γ2 GABAA receptors): < 100 nM
- activation at 0.1 µM (GABAA receptors (α5β2γ2)): > 50%

SMILES: COCc1nnc2n1Cc1c(C#Cc3cnccn3)ncn1-c1ccc(OC)cc1-2 [Compound 589]
- Ki (α5β3γ2 GABAA receptors): < 100 nM
- activation at 0.1 µM (GABAA receptors (α5β2γ2)): > 50%

SMILES: COCc1nnc2n1Cc1c(C#Cc3cccc(C)n3)ncn1-c1ccc(Cl)cc1-2 [Compound 596]
- Ki (α5β3γ2 GABAA receptors): < 100 nM
- activation at 0.1 µM (GABAA receptors (α5β2γ2)): > 50%

SMILES: COCc1nnc2n1Cc1c(C#Cc3cnc(C)s3)ncn1-c1ccc(OC)cc1-2 [Compound 597]
- Ki (α5β3γ2 GABAA receptors): < 100 nM
- activation at 0.1 µM (GABAA receptors (α5β2γ2)): > 50%

SMILES: COCc1nnc2n1Cc1c(C#Cc3ccc(OC)cn3)ncn1-c1ccc(OC)cc1-2 [Compound 603]
- Ki (α5β3γ2 GABAA receptors): < 100 nM
- activation at 0.1 µM (GABAA receptors (α5β2γ2)): > 50%

SMILES: CCc1cncc(C#Cc2ncn3c2Cn2c(COC)nnc2-c2cc(Cl)ccc2-3)c1 [Compound 604]
- Ki (α5β3γ2 GABAA receptors): < 100 nM
- activation at 0.1 µM (GABAA receptors (α5β2γ2)): > 50%

SMILES: COCc1nnc2n1Cc1c(C#Cc3nc(C)cs3)ncn1-c1ccc(Cl)cc1-2 [Compound 605]
- Ki (α5β3γ2 GABAA receptors): < 100 nM
- activation at 0.1 µM (GABAA receptors (α5β2γ2)): > 50%

SMILES: COCc1nnc2n1Cc1c(C#Cc3cnc(OC)s3)ncn1-c1ccc(Cl)cc1-2 [Compound 606, 5-((3-chloro-7-(methoxymethyl)-9H-benzo[f]imidazo[1,5-a][1,2,4]triazolo[4,3-d][1,4]diazepin-10-yl)ethynyl)-2-methoxythiazole]
- Ki (α5β3γ2 GABAA receptors): < 100 nM
- activation at 0.1 µM (GABAA receptors (α5β2γ2)): 20 to 50%

SMILES: COCc1nnc2n1Cc1c(C#Cc3ncc(C)s3)ncn1-c1ccc(Cl)cc1-2 [Compound 607]
- Ki (α5β3γ2 GABAA receptors): < 100 nM
- activation at 0.1 µM (GABAA receptors (α5β2γ2)): 20 to 50%

SMILES: COCc1nnc2n1Cc1c(C#Cc3cnc(C)s3)ncn1-c1ccc(Cl)cc1-2 [Compound 608]
- Ki (α5β3γ2 GABAA receptors): < 100 nM
- activation at 0.1 µM (GABAA receptors (α5β2γ2)): 20 to 50%

SMILES: COCc1nnc2n1Cc1c(C#Cc3cc(C)cnn3)ncn1-c1ccc(Cl)cc1-2 [Compound 609]
- Ki (α5β3γ2 GABAA receptors): 100 to 1000 nM
- activation at 0.1 µM (GABAA receptors (α5β2γ2)): 20 to 50%

SMILES: COCc1nnc2n1Cc1c(C#Cc3cccnc3OC)ncn1-c1ccc(OC)cc1-2 [Compound 615]
- Ki (α5β3γ2 GABAA receptors): < 100 nM
- activation at 0.1 µM (GABAA receptors (α5β2γ2)): 20 to 50%

SMILES: COc1ccc(C#Cc2ncn3c2Cn2c(COC(F)F)nnc2-c2cc(Cl)ccc2-3)cn1 [Compound 616]
- Ki (α5β3γ2 GABAA receptors): < 100 nM
- activation at 0.1 µM (GABAA receptors (α5β2γ2)): 5 to 20%

SMILES: COc1ccc2c(c1)-n1nncc1Cc1c(C#Cc3cncc(C)c3)ncn1-2 [Compound 617]
- Ki (α5β3γ2 GABAA receptors): < 100 nM
- activation at 0.1 µM (GABAA receptors (α5β2γ2)): 5 to 20%

SMILES: Cc1cncc(C#Cc2ncn3c2Cc2cnnn2-c2cc(Cl)ccc2-3)c1 [Compound 618]
- Ki (α5β3γ2 GABAA receptors): < 100 nM
- activation at 0.1 µM (GABAA receptors (α5β2γ2)): 20 to 50%

SMILES: COCc1nnc2n1Cc1c(C#Cc3cnc(OC)s3)ncn1-c1ccc(OC)cc1-2 [Compound 619]
- Ki (α5β3γ2 GABAA receptors): < 100 nM
- activation at 0.1 µM (GABAA receptors (α5β2γ2)): 5 to 20%

SMILES: C[C@]1(c2ccccc2)COC(c2ncn3c2Cc2cnnn2-c2cc(Cl)ccc2-3)=N1 [Compound 623]
- Ki (α5β3γ2 GABAA receptors): < 100 nM
- activation at 0.1 µM (GABAA receptors (α5β2γ2)): 5 to 20%

SMILES: FC(F)(F)c1ccc2c(c1)-n1nncc1Cc1c(C3=NC[C@@H](c4ccccc4)O3)ncn1-2 [Compound 624]
- Ki (α5β3γ2 GABAA receptors): < 100 nM
- activation at 0.1 µM (GABAA receptors (α5β2γ2)): 5 to 20%

SMILES: Clc1ccc2c(c1)-n1nncc1Cc1c(C3=NCC(c4ccccn4)O3)ncn1-2 (stereo not shown) [Compound 627]
- Ki (α5β3γ2 GABAA receptors): < 100 nM
- activation at 0.1 µM (GABAA receptors (α5β2γ2)): 20 to 50%

Source: patent US11414425B2 (priority 2018, dated 2022)
